Legend:
[1] = biological target: T1, h-jak3(810-1124) (JAK3 recombinant human kinase domain) (Homo sapiens, UniProt P52333); assay: Determination of IC50 of Janus Kinase (JAK) inhibition, radioactive end-point 33P-ATP kinase assay, JAK3; assay type: biochemical; details: JAK3 kinase domain (810-1124), sf9; no additive; ATP 1.5 uM, peptide 50 uM, 20 minutes, room temperature; read-out: Ic50 h-jak3(810-1124)-sf9-c: no additive
T1 construct: Ic50 h-jak3(810-1124)-; made in house; host or cells: Sf9 insect cells
Source text: Determination of IC50 of Janus Kinase (JAK) Inhibition:
Enzymes and peptide substrate used are described below: • JAK1: Recombinant human kinase domain from Invitrogen (Cat # PV4774) • JAK3: Recombinant human kinase domain from Millipore (Cat # 14-629) or prepared. • JAK2: Recombinant human kinase domain from Millipore (Cat # 14-640) Substrate: N-terminally biotinylated 14-mer peptide derived from activation loop of JAK1 with sequence of the peptide substrate: Biotin-[…]
Assay conditions used are described below: • Assay Buffer: JAK Kinase Buffer: 50 mM Hepes [pH 7.2], 10 mM MgCl2, 1 mM DTT, 1 mg/ml BSA. The assay was carried out in this buffer. • Assay Format The kinase activity of all three JAK kinases was measured using a radioactive, end-point assay and with trace amounts of ^33P-ATP. The assays were carried out in 96-well polypropylene plates. Experimental Method:
All concentrations were final in the reaction mixture and all incubations were carried at room temperature. Assay steps are described below: • 1) Compounds were serially diluted in 100% DMSO typically at a 10× starting concentration of 1 mM. Final concentration of DMSO in the reaction was 10%. • 2) Compounds were preincubated with enzyme (0.5 nM JAK3 (commercially available), 0.2 nM JAK3 (prepared), 1 nM JAK2, 5 nM JAK1) for 10 minutes. • 3) Reactions were initiated by the addition of a cocktail of the two substrates (ATP and peptide premixed in the JAK Kinase Buffer). In the JAK2/JAK3 assays, ATP and the peptide were used at concentrations of 1.5 uM and 50 uM, respectively. JAK1 assay was carried out at an ATP concentration of 10 uM and a peptide concentration of 50 uM. • 4) The duration of the assay for JAK2 and JAK3 is 20 minutes. JAK1 assay was carried out for 40 minutes. With all three enzymes, reactions were terminated by the addition of 0.5M EDTA to a final concentration of 100 mM. • 5) 25 ul of terminated reactions were transferred to 150 ul of a 7.5% (v/v) slurry of streptavidin-coated sepharose beads in MgCl2- and CaCl2-free 1× Phosphate Buffered Saline containing 50 mM of EDTA in 96-well, 1.2 um MultiScreen-BV filter plates. • 6) After a 30-minute incubation, the beads were washed under vacuum with the following buffers: • a. 3 to 4 washes with 200 ul of 2M NaCl. • b. 3 to 4 washes with 200 ul of 2M NaCl plus 1% (v/v) phosphoric acid. • c. 1 wash with water. • 7) Washed plates were dried in a 60° C. oven for between 1 to 2 hours. • 8) 70 ul of Microscint 20 scintillation fluid was added to each well of filter plates and after at least 30 minutes of incubation, radioactive counts were measured in a Perkinelmer microplate scintillation counter.

T1 sequence (P52333 810-1124): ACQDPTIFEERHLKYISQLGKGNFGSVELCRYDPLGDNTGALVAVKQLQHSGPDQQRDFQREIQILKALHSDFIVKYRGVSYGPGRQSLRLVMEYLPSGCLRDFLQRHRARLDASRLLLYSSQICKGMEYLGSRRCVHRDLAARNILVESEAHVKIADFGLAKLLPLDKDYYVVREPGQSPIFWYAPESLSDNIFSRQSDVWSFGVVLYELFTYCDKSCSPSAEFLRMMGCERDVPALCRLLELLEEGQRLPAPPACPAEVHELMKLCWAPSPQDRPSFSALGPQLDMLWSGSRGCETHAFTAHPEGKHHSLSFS

IC50 [1] [nM] | melting point [°C] | Compound
112 | – | C[C@@H](NC(=O)c1c[nH]c2ncc(C3CC3)nc12)C(=O)N(C)C [Compound I-6, 2-Cyclopropyl-5H-pyrrolo[2,3-b]pyrazine-7-carboxylic acid ((R)-1-dimethylcarbamoyl-ethyl)-amide]
200 | 230 to 232 | CC(CC(=O)NCC(F)(F)F)NC(=O)c1c[nH]c2ncc(C3CC3)nc12 (stereo not shown) [Compound I-2, 2-Cyclopropyl-5H-pyrrolo[2,3-b]pyrazine-7-carboxylic acid [1-methyl-2-(2,2,2-trifluoro-ethylcarbamoyl)-ethyl]-amide]
287 | 215 to 220 | NC(=O)CNC(=O)c1c[nH]c2ncc(C3CC3)nc12 [Compound I-1, 2-Cyclopropyl-5H-pyrrolo[2,3-b]pyrazine-7-carboxylic acid carbamoylmethyl-amide]
986 | 236 to 238 | CC(CC(=O)NC1CC1)NC(=O)c1c[nH]c2ncc(C3CC3)nc12 (stereo not shown) [Compound I-5, 2-Cyclopropyl-5H-pyrrolo[2,3-b]pyrazine-7-carboxylic acid (2-cyclopropylcarbamoyl-1-methyl-ethyl)-amide]
315 | – | O=C(N[C@@H]1CCCNC1=O)c1c[nH]c2ncc(C3CC3)nc12 [Compound I-11, 2-Cyclopropyl-5H-pyrrolo[2,3-b]pyrazine-7-carboxylic acid ((R)-2-oxo-piperidin-3-yl)-amide]
95 | – | CC(C)C[C@@H](NC(=O)c1c[nH]c2ncc(C3CC3)nc12)C(=O)N(C)C [Compound I-10, 2-Cyclopropyl-5H-pyrrolo[2,3-b]pyrazine-7-carboxylic acid ((R)-1-dimethylcarbamoyl-3-methyl-butyl)-amide]
39.7 | – | C[C@@H](NC(=O)c1c[nH]c2ncc(C3CC3)nc12)C(=O)N(C)CC#N [Compound I-8, 2-Cyclopropyl-5H-pyrrolo[2,3-b]pyrazine-7-carboxylic acid [(R)-1-(cyanomethyl-methyl-carbamoyl)-ethyl]-amide]
909 | 182 to 184 | CCNC(=O)CC(C)NC(=O)c1c[nH]c2ncc(C3CC3)nc12 (stereo not shown) [Compound I-3, 2-Cyclopropyl-5H-pyrrolo[2,3-b]pyrazine-7-carboxylic acid (2-ethylcarbamoyl-1-methyl-ethyl)-amide]
178 | – | CN1CCC[C@@H](NC(=O)c2c[nH]c3ncc(C4CC4)nc23)C1=O [Compound I-12, 2-Cyclopropyl-5H-pyrrolo[2,3-b]pyrazine-7-carboxylic acid ((R)-1-methyl-2-oxo-piperidin-3-yl)-amide]
836 | 198 to 200 | CCCNC(=O)CC(C)NC(=O)c1c[nH]c2ncc(C3CC3)nc12 (stereo not shown) [Compound I-4, 2-Cyclopropyl-5H-pyrrolo[2,3-b]pyrazine-7-carboxylic acid (1-methyl-2-propylcarbamoyl-ethyl)-amide]
68 | 222 to 224 | CC(C)(C(N)=O)C(NC(=O)c1c[nH]c2ncc(C3CC3)nc12)C1CC1 (stereo not shown) [Compound I-7, 2-Cyclopropyl-5H-pyrrolo[2,3-b]pyrazine-7-carboxylic acid (2-carbamoyl-1-cyclopropyl-2-methyl-propyl)-amide]
1240 | – | C[C@H](NC(=O)c1c[nH]c2ncc(C3CC3)nc12)C(=O)N(C)C [Compound I-9, 2-Cyclopropyl-5H-pyrrolo[2,3-b]pyrazine-7-carboxylic acid ((S)-1-dimethylcarbamoyl-ethyl)-amide]
138 | – | N#CCCN1CCC[C@@H](NC(=O)c2c[nH]c3ncc(C4CC4)nc23)C1=O [Compound I-13, 2-Cyclopropyl-5H-pyrrolo[2,3-b]pyrazine-7-carboxylic acid [(R)-1-(2-cyano-ethyl)-2-oxo-piperidin-3-yl]-amide]
